The target of this assay is T1, human A2a receptor (Homo sapiens, UniProt P29274).
T1 construct: purchased Perkin-Elmer RBHA2AM400UA; host or cells: HEK293 cells (membranes)
In words: A2a competition binding assay, Scintillation Proximity technology. The conditions noted are these: membranes from HEK293 cells expressing human A2a receptor; for pKi: Ki by Cheng-Prusoff equation. The essentials: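 Membranes from HEK293 cells expressing human A2a, adenosine deaminase-treated, incubated 1 h at room temperature with compound (3000 to 0.15 nM) and 0.5 nM tritiated pyrazolotriazolopyrimidine radioligand on WGA SPA beads in Ca/Mg-free PBS + 10 mM MgCl2. Non-specific binding with 1 μM CGS15943; Ki by Cheng-Prusoff.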
Background: SPA uses beads or plates that emit light when radiolabelled molecules are held near them.

Each structure is given as a SMILES string. pEC50, pKi: −log10 of the molar value.

Data on 38 compounds can be found in patent US10472347B2, “Aminopyrazine compounds with A2A antagonist properties” (Merck Sharp & Dohme Corp., priority 2014, dated 2019).

As usually defined, the pKi is the Ki on a negative log10 scale, so that one unit is a factor of ten. A lower pKi goes with a high Ki. Broadly, the pEC50 is the EC50 on a negative log10 scale, so that one unit is a factor of ten. Low readings indicate a high EC50, high ones a low EC50.

T1 sequence (P29274 whole entry): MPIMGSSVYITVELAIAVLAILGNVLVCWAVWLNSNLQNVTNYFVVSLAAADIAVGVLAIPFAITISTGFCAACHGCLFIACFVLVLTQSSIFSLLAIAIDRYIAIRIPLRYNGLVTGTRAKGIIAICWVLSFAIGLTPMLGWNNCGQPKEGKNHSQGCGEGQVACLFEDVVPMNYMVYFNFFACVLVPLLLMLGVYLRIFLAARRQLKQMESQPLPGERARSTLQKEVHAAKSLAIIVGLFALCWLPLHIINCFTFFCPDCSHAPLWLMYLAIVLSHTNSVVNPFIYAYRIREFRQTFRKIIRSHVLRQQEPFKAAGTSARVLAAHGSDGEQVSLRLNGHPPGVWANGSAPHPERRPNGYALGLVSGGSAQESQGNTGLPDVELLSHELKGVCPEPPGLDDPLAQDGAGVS

In the case of `Cc1cccnc1CNC(=O)c1nc(C)c(-c2cnco2)nc1N` [Ex-252, 3-amino-6-methyl-N-[(3-methylpyridin-2-yl)methyl]-5-(1,3-oxazol-5-yl)pyrazine-2-carboxamide], the pKi was 8.74.

Compound `Cc1nc(C(=O)N[C@@H]2CCC[C@@H]2O)c(N)nc1-c1ncco1` [Ex-212, 3-amino-N-[(1R,2S)-2-hydroxycyclopentyl]-6-methyl-5-(1,3-oxazol-2-yl)pyrazine-2-carboxamide] showed a pKi of 7.00.

The compound `Nc1nc(-n2cccn2)c(Cl)nc1C(=O)NCc1cccc2cccnc12` [Ex-332, 3-amino-6-chloro-5-(1H-pyrazol-1-yl)-N-(quinolin-8-ylmethyl)pyrazine-2-carboxamide] had a pKi of 8.39.

For the compound `Cc1nc(C(=O)NCC(C)(F)F)c(N)nc1-c1cnco1` [Ex-262, 3-amino-N-(2,2-difluoropropyl)-6-methyl-5-(1,3-oxazol-5-yl)pyrazine-2-carboxamide], the pKi is 6.47.

The compound `Nc1nc(-n2nccn2)c(Cl)nc1C(=O)NC1CCNc2ccccc21` (centres unmarked) [Ex-293, 3-amino-6-chloro-N-(1,2,3,4-tetrahydroquinolin-4-yl)-5-(2H-1,2,3-triazol-2-yl)pyrazine-2-carboxamide] gave a pKi of 6.97.

As to `Cc1cc(C)nc(CNC(=O)c2nc(C)c(-c3ncco3)nc2N)c1` [Ex-35, 3-amino-N-[(4,6-dimethylpyridin-2-yl)methyl]-6-methyl-5-(1,3-oxazol-2-yl)pyrazine-2-carboxamide], the pKi was 9.40.

In turn, `Cc1cnn(-c2nc(N)c(C(=O)NCc3cccc4cccnc34)nc2C(F)F)c1` [Ex-387, 3-amino-6-(difluoromethyl)-5-(4-methyl-1H-pyrazol-1-yl)-N-(quinolin-8-ylmethyl)pyrazine-2-carboxamide] showed a pKi of 8.55.

Compound `COc1ccc(CNC(=O)c2nc(C)c(-c3ncco3)nc2N)nc1C(F)(F)F` [Ex-55, 3-amino-N-{[5-methoxy-6-(trifluoromethyl)pyridin-2-yl]methyl}-6-methyl-5-(1,3-oxazol-2-yl)pyrazine-2-carboxamide] showed a pKi of 8.41.

Consider `Cc1nc(C(=O)NCc2cccc(F)c2)c(N)nc1-c1ncco1` [Ex-31, 3-amino-N-(3-fluorobenzyl)-6-methyl-5-(1,3-oxazol-2-yl)pyrazine-2-carboxamide], for which the negative-log Ki (pKi) is 9.13.

Take `Cc1nc(C(=O)NCc2ncc(F)cc2Cl)c(N)nc1-c1ncco1` [Ex-47, 3-amino-N-[(3-chloro-5-fluoropyridin-2-yl)methyl]-6-methyl-5-(1,3-oxazol-2-yl)pyrazine-2-carboxamide]: the pKi was 8.74.

On to `Cc1nc(C(=O)NCc2nccnc2F)c(N)nc1-c1ncco1` [Ex-172, 3-amino-N-[(3-fluoropyrazin-2-yl)methyl]-6-methyl-5-(1,3-oxazol-2-yl)pyrazine-2-carboxamide], for which the pKi is 8.52.

With `Cc1nc(C(=O)N2CCCC(F)(F)C2)c(N)nc1-c1ncco1` [Ex-34, 3-[(3,3-difluoropiperidin-1-yl)carbonyl]-5-methyl-6-(1,3-oxazol-2-yl)pyrazin-2-amine], the pKi was 6.07.

Take `Nc1nc(-n2nccn2)c(Cl)nc1C(=O)NCc1ccccc1Br` [Ex-288, 3-amino-N-(2-bromobenzyl)-6-chloro-5-(2H-1,2,3-triazol-2-yl)pyrazine-2-carboxamide]: the pKi is 8.72.

In turn, `Cc1nc(C(=O)NCc2nccc3ncn(C)c23)c(N)nc1-c1ncco1` [Ex-198, 3-amino-6-methyl-N-[(3-methyl-3H-imidazo[4,5-c]pyridin-4-yl)methyl]-5-(1,3-oxazol-2-yl)pyrazine-2-carboxamide] gave a pKi of 8.06.

In turn, `Cc1nc(C(=O)NCc2cccnc2Cl)c(N)nc1-c1ncco1` [Ex-65, 3-amino-N-[(2-chloropyridin-3-yl)methyl]-6-methyl-5-(1,3-oxazol-2-yl)pyrazine-2-carboxamide] had a pKi of 8.38.

In turn, `Cc1nc(C(=O)NCc2nccn2CC(F)F)c(N)nc1-c1ncco1` [Ex-44, 3-amino-N-{[1-(2,2-difluoroethyl)-1H-imidazol-2-yl]methyl}-6-methyl-5-(1,3-oxazol-2-yl)pyrazine-2-carboxamide] showed a pKi of 9.27.

In turn, `Cc1nc(C(=O)NCc2ccc(F)nc2)c(N)nc1-c1ncco1` [Ex-53, 3-amino-N-[(6-fluoropyridin-3-yl)methyl]-6-methyl-5-(1,3-oxazol-2-yl)pyrazine-2-carboxamide] had a pKi of 7.58.

Turning to `Nc1nc(-n2nccn2)c(Cl)nc1C(=O)NCC1CCCc2cccnc21` (centres unmarked) [Ex-319, 3-amino-6-chloro-N-(5,6,7,8-tetrahydroquinolin-8-ylmethyl)-5-(2H-1,2,3-triazol-2-yl)pyrazine-2-carboxamide], the pKi is 7.11.

The compound `Nc1nc(-n2nccn2)c(Cl)nc1C(=O)N[C@H](CO)Cc1c[nH]c2ccccc12` [Ex-325, 3-amino-6-chloro-N-[(1S)-2-hydroxy-1-(1H-indol-3-ylmethyl)ethyl]-5-(2H-1,2,3-triazol-2-yl)pyrazine-2-carboxamide] gave a pKi of 6.47.

As for `Nc1nc(-n2nccn2)c(Cl)nc1C(=O)NCc1cccc2nccnc12` [Ex-300, 3-amino-6-chloro-N-(quinoxalin-5-ylmethyl)-5-(2H-1,2,3-triazol-2-yl)pyrazine-2-carboxamide], the pKi is 7.35.

Compound `Cc1cccnc1CNC(=O)c1nc(C)c(-c2nc(C)c(C)o2)nc1N` [Ex-381, 3-amino-5-(4,5-dimethyl-1,3-oxazol-2-yl)-6-methyl-N-[(3-methylpyridin-2-yl)methyl]pyrazine-2-carboxamide] showed a pKi of 7.09.

Regarding `Nc1nc(-n2nccn2)c(Cl)nc1C(=O)NCCOc1ccccc1` [Ex-315, 3-amino-6-chloro-N-(2-phenoxyethyl)-5-(2H-1,2,3-triazol-2-yl)pyrazine-2-carboxamide], the pKi is 6.71.

`Cc1nc(C(=O)NCc2ccc(C(C)C)cc2)c(N)nc1-c1ncco1` [Ex-133, 3-amino-6-methyl-N-[4-(1-methylethyl)benzyl]-5-(1,3-oxazol-2-yl)pyrazine-2-carboxamide] gave a pKi of 8.59.

`Cc1nc(C(=O)NCc2ncccc2C2CC2)c(N)nc1-c1ncco1` [Ex-4, 3-amino-N-((3-cyclopropylpyridin-2-yl)methyl)-6-methyl-5-(oxazol-2-yl)pyrazine-2-carboxamide] had a pEC50 (0.5 nM tritiated ligand) of 8.34.

`Cc1cc(C(F)(F)F)cnc1CNC(=O)c1nc(C)c(-c2ncco2)nc1N` [Ex-183, 3-amino-6-methyl-N-{[3-methyl-5-(trifluoromethyl)pyridin-2-yl]methyl}-5-(1,3-oxazol-2-yl)pyrazine-2-carboxamide]: the pKi was 8.17.

Compound `Cc1cnn(-c2nc(N)c(C(=O)NCc3ccc4[nH]ccc4c3)nc2Cl)c1` [Ex-350, 3-amino-6-chloro-N-(1H-indol-5-ylmethyl)-5-(4-methyl-1H-pyrazol-1-yl)pyrazine-2-carboxamide] had a pKi of 6.20.

For `Cc1nc(C(=O)NCc2cccc[n+]2[O-])c(N)nc1-c1ncco1` [Ex-52, 3-amino-6-methyl-5-(1,3-oxazol-2-yl)-N-[(1-oxidopyridin-2-yl)methyl]pyrazine-2-carboxamide], the pKi was 8.31.

`Nc1nc(-n2nccn2)c(Cl)nc1C(=O)NCc1cc2ccccc2cn1` [Ex-307, 3-amino-6-chloro-N-(isoquinolin-3-ylmethyl)-5-(2H-1,2,3-triazol-2-yl)pyrazine-2-carboxamide] gave a pKi of 7.67.

Compound `Cc1cccnc1CNC(=O)c1nc(Cl)c(-n2nccn2)nc1N` [Ex-282, 3-amino-6-chloro-N-[(3-methylpyridin-2-yl)methyl]-5-(2H-1,2,3-triazol-2-yl)pyrazine-2-carboxamide] showed a negative logarithm of the Ki (pKi) of 8.85.

`Cc1cnn(-c2nc(N)c(C(=O)NC3CCNc4ccccc43)nc2Cl)n1` (centres unmarked) [Ex-346, 3-amino-6-chloro-5-(4-methyl-2H-1,2,3-triazol-2-yl)-N-(1,2,3,4-tetrahydroquinolin-4-yl)pyrazine-2-carboxamide] gave a pKi of 6.40.

Take `Nc1nc(-n2cncn2)c(Cl)nc1C(=O)NCc1ccccc1C(F)(F)F` [Ex-327, 3-amino-6-chloro-5-(1H-1,2,4-triazol-1-yl)-N-[2-(trifluoromethyl)benzyl] pyrazine-2-carboxamide]: the pKi is 7.25.

In turn, `Cc1nc(C(=O)NCc2cccc3cccnc23)c(N)nc1-n1nccn1` [Ex-275, 3-amino-6-methyl-N-(quinolin-8-ylmethyl)-5-(2H-1,2,3-triazol-2-yl)pyrazine-2-carboxamide] gave a pKi of 8.68.

On to `Cc1cn(C)c(CNC(=O)c2nc(C)c(-c3ncco3)nc2N)n1` [Ex-120, 3-amino-N-[(1,4-dimethyl-1H-imidazol-2-yl)methyl]-6-methyl-5-(1,3-oxazol-2-yl)pyrazine-2-carboxamide], for which the pKi was 8.24.

Take `Cc1nc(C(=O)N[C@H]2CCc3ccc(F)cc32)c(N)nc1-c1ncco1` [Ex-201, 3-amino-N-[(1S)-6-fluoro-2,3-dihydro-1H-inden-1-yl]-6-methyl-5-(1,3-oxazol-2-yl)pyrazine-2-carboxamide]: the pKi is 9.20.

On to `Cc1nc(C(=O)NCc2ncc(F)cc2C2CC2)c(N)nc1-c1ncco1` [Ex-169, 3-amino-N-[(3-cyclopropyl-5-fluoropyridin-2-yl)methyl]-6-methyl-5-(1,3-oxazol-2-yl)pyrazine-2-carboxamide], for which the pKi is 9.43.

The compound `Cc1nc(C(=O)NCc2ncccn2)c(N)nc1-c1ncco1` [Ex-19, 3-amino-6-methyl-5-(1,3-oxazol-2-yl)-N-(pyrimidin-2-ylmethyl)pyrazine-2-carboxamide] showed a pKi of 8.56.

`Cc1nc(C(=O)NCc2ncccc2Cl)c(N)nc1-c1ncco1` [Ex-72, 3-amino-N-[(3-chloropyridin-2-yl)methyl]-6-methyl-5-(1,3-oxazol-2-yl)pyrazine-2-carboxamide] showed a pKi of 9.54.

With `Cc1nc(C(=O)N[C@H]2CCc3cc(Cl)ccc32)c(N)nc1-c1ncco1` [Ex-222], the pKi was 8.04.
